Here are results for 14 compounds from US20260226071A1, “2, 4-DIANILINOPYRIMIDINE-BASED AURORA-A KINASE SELECTIVE DEGRADATION INDUCING COMPOUNDS” (UPPTHERA, INC., priority 2023, published 2026).

Broadly, the IC50 is the point on the concentration scale where inhibition reaches its midpoint.

One assay concerns NCI-H446 cell line. Briefly: Cell viability assay for NCI-H446 cell line. It counts as cell-based. Conditions: Homo sapiens, NCI-H446, 120 h; H446 cells, 5 days culture, EZ-Cytox; read-out: IC50 value (Level). The essentials: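 H446 cells seeded 24 h before treatment with compound in 3-fold dilutions, 1000 to 0.15 nM, then cultured 5 days at 37 °C, 5% CO2 in RPMI 1640/10% FBS. Viability read with EZ-Cytox (4 h) as absorbance at 450 nm.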

The target in a further assay is T1, Aurora kinase A (AURKA) (Homo sapiens, UniProt O14965).
T1 construct: endogenous in cells; host or cells: HeLa LgBit (AURKA-HiBit KI), CRISPR/Cas9 knock-in at the endogenous AURKA locus
T1 sequence (O14965 1-403): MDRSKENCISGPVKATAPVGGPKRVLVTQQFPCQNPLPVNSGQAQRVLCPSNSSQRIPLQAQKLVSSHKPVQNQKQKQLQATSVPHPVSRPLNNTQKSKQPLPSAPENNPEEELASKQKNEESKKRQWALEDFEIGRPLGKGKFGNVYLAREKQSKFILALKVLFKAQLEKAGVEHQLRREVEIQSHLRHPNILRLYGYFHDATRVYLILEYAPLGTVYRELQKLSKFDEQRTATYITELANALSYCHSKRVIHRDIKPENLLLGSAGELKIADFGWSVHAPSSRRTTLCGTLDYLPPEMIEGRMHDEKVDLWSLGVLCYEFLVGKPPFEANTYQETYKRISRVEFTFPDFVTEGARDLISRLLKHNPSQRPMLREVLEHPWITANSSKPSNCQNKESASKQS
Briefly: Luciferase assay for AURKA in HeLa LgBit (AURKA-HiBit KI) cell line. The note with it: HeLa LgBit (AURKA-HiBit KI) cells, measured after 12 hours. It counts as cell-based. The gist of the method:
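HeLa cells stably expressing LgBit, with HiBit knocked in at the C-terminus of endogenous AURKA; 3×10^4 cells seeded, 18 h, then Endurazine substrate 2 h. Compounds tested at 10 nM or 100 nM; luminescence read at 470-480 nm after 12 h as real-time read-out.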
(In general: HiBiT is a short tag that completes a luciferase, so light tracks the accessible tagged protein.)

`O=C1CCC(c2ccc(N3CCN(CCC4CCN(NC(=O)c5ccc(Nc6ncc(F)c(Nc7ccc(C(=O)Nc8ccccc8F)cc7)n6)cc5)CC4)CC3)cc2)C(=O)N1` (stereo not drawn) [Compound 90, 4-[[2-[4-[[4-[2-[4-[4-(2,6-dioxo-3-piperidyl)phenyl]piperazin-1-yl]ethyl]-1-piperidyl]carbamoyl]anilino]-5-fluoro-pyrimidin-4-yl]amino]-N-(2-fluorophenyl)benzamide]: in the assay on NCI-H446 cell line, the IC50 was less than 50 nM. Further, the entries for the “luminescence value (Level)” value on Aurora kinase A (AURKA) (10 nM compound) and on Aurora kinase A (AURKA) (100 nM compound) were “A (A is <0.3)” and “A (A is <0.2)”, respectively.
With `O=C1CCC(c2ccc(N3CCN(CCC4CCN(NC(=O)c5ccc(Nc6ncc(F)c(Nc7ccc(NC(=O)c8ccccc8Cl)cc7)n6)cc5)CC4)CC3)cc2)C(=O)N1` (stereo not drawn) [Compound 93, 2-chloro-N-(4-((2-((4-((4-(2-(4-(4-(2,6-dioxopiperidin-3-yl)phenyl)piperazin-1-yl)ethyl)piperidin-1-yl)carbamoyl)phenyl)amino)-5-fluoropyrimidin-4-yl)amino)phenyl)benzamide], the half-inhibitory concentration (IC50) in the assay with NCI-H446 cell line was less than 50 nM. Besides, the “luminescence value (Level)” value on Aurora kinase A (AURKA) (10 nM compound) is recorded as “A (A is <0.3)”; at Aurora kinase A (AURKA) (100 nM compound) it was “A (A is <0.2)”.
On to `O=C1CC[C@H](Nc2ccc(N3CCN(CCC4CCN(NC(=O)c5ccc(Nc6ncc(F)c(Nc7ccc(C(=O)Nc8ccccc8Cl)cc7)n6)cc5)CC4)CC3)c(F)c2)C(=O)N1` [Compound 94, (S)—N-(2-chlorophenyl)-4-((2-((4-((4-(2-(4-(4-((2,6-dioxopiperidin-3-yl)amino)-2-fluorophenyl)piperazin-1-yl)ethyl)piperidin-1-yl)carbamoyl)phenyl)amino)-5-fluoropyrimidin-4-yl)amino)benzamide], for which the IC50 with NCI-H446 cell line is less than 50 nM. Also, the entries for the “luminescence value (Level)” value on Aurora kinase A (AURKA) (10 nM compound) and on Aurora kinase A (AURKA) (100 nM compound) were “A (A is <0.3)” and “A (A is <0.2)”, respectively.
Regarding `O=C1CC[C@H](Nc2ccc(N3CCN(CCC4CCN(NC(=O)c5ccc(Nc6ncc(F)c(Nc7ccc(C(=O)Nc8ccccc8Cl)cc7)n6)cc5)CC4)CC3)cc2F)C(=O)N1` [Compound 95, (S)—N-(2-chlorophenyl)-4-((2-((4-((4-(2-(4-(4-((2,6-dioxopiperidin-3-yl)amino)-3-fluorophenyl)piperazin-1-yl)ethyl)piperidin-1-yl)carbamoyl)phenyl)amino)-5-fluoropyrimidin-4-yl)amino)benzamide], the IC50 with NCI-H446 cell line was in the range of 50 to 100 nM. Further, the “luminescence value (Level)” value is on record as “B (B is 0.3 to 0.5)” on Aurora kinase A (AURKA) (10 nM compound) and “A (A is <0.2)” on Aurora kinase A (AURKA) (100 nM compound).
On to `O=C1CCC(c2ccc(N3CCC(O)(CCC4CCN(NC(=O)c5ccc(Nc6ncc(F)c(Nc7ccc(C(=O)Nc8ccccc8Cl)cc7)n6)cc5)CC4)CC3)c(F)c2)C(=O)N1` (stereo not drawn) [Compound 96, N-(2-chlorophenyl)-4-((2-((4-((4-(2-(1-(4-(2,6-dioxopiperidin-3-yl)-2-fluorophenyl)-4-hydroxypiperidin-4-yl)ethyl)piperidin-1-yl)carbamoyl)phenyl)amino)-5-fluoropyrimidin-4-yl)amino)benzamide], for which the IC50 in the assay with NCI-H446 cell line was less than 50 nM. Moreover, the entries for the “luminescence value (Level)” value on Aurora kinase A (AURKA) (10 nM compound) and at Aurora kinase A (AURKA) (100 nM compound) were “A (A is <0.3)” and “A (A is <0.2)”, respectively.
As for `O=C1CCC(c2ccc(N3CCC(CN4CC5(CCN(NC(=O)c6ccc(Nc7ncc(F)c(Nc8ccc(C(=O)Nc9ccccc9Cl)cc8)n7)cc6)CC5)C4)CC3)c(F)c2)C(=O)N1` (stereo not drawn) [Compound 97, N-(2-chlorophenyl)-4-((2-((4-((2-((1-(4-(2,6-dioxopiperidin-3-yl)-2-fluorophenyl)piperidin-4-yl)methyl)-2,7-diazaspiro[3.5]nonan-7-yl)carbamoyl)phenyl)amino)-5-fluoropyrimidin-4-yl)amino)benzamide], the IC50 in the assay with NCI-H446 cell line was in the range of 50 to 100 nM. Also, the entries for the “luminescence value (Level)” value at Aurora kinase A (AURKA) (10 nM compound) and on Aurora kinase A (AURKA) (100 nM compound) were “B (B is 0.3 to 0.5)” and “A (A is <0.2)”, respectively.
Regarding `O=C1CCC(c2ccc(N3CCN(CCC4CCN(NC(=O)c5ccc(Nc6ncc(F)c(Nc7ccc(C(=O)Nc8ccccc8Cl)cn7)n6)cc5)CC4)CC3)cc2)C(=O)N1` (stereo not drawn) [Compound 98, N-(2-chlorophenyl)-6-((2-((4-((4-(2-(4-(4-(2,6-dioxopiperidin-3-yl)phenyl)piperazin-1-yl)ethyl)piperidin-1-yl)carbamoyl)phenyl)amino)-5-fluoropyrimidin-4-yl)amino) nicotinamide], in the assay with NCI-H446 cell line, the IC50 was in the range of 100 to 150 nM. Moreover, the “luminescence value (Level)” value is recorded as “A (A is <0.3)” at Aurora kinase A (AURKA) (10 nM compound) and “A (A is <0.2)” at Aurora kinase A (AURKA) (100 nM compound).
Turning to `O=C1CCC(c2ccc(N3CCN(CCN4CCC(COc5ccc(Nc6ncc(F)c(Nc7ccc(C(=O)Nc8ccccc8Cl)cc7)n6)cc5)CC4)CC3)cc2)C(=O)N1` (stereo not drawn) [Compound 99, N-(2-chlorophenyl)-4-((2-((4-((1-(2-(4-(4-(2,6-dioxopiperidin-3-yl)phenyl)piperazin-1-yl)ethyl)piperidin-4-yl)methoxy)phenyl)amino)-5-fluoropyrimidin-4-yl)amino) benzamide], the IC50 in the assay with NCI-H446 cell line was more than 200 nM. For the same compound, the “luminescence value (Level)” value was “D (D is 0.7 to 0.8)” on Aurora kinase A (AURKA) (10 nM compound) and “B (B is 0.2 to 0.4)” at Aurora kinase A (AURKA) (100 nM compound).
On to `CN(Cc1ccc(Nc2ncc(F)c(Nc3ccc(C(=O)Nc4ccccc4Cl)cc3)n2)cc1)C1CCN(CCN2CCN(c3ccc(C4CCC(=O)NC4=O)cc3)CC2)CC1` (stereo not drawn) [Compound 100, N-(2-chlorophenyl)-4-((2-((4-(((1-(2-(4-(4-(2,6-dioxopiperidin-3-yl)phenyl)piperazin-1-yl)ethyl)piperidin-4-yl)(methyl)amino)methyl)phenyl)amino)-5-fluoropyrimidin-4-yl)amino)benzamide], for which, in the assay with NCI-H446 cell line, the IC50 was more than 200 nM. The “luminescence value (Level)” value is reported as “C (C is 0.5 to 0.7)” at Aurora kinase A (AURKA) (10 nM compound) and “A (A is <0.2)” on Aurora kinase A (AURKA) (100 nM compound).
For `O=C1CCC(c2ccc(N3CCN(CCC4CCN(NC(=O)c5ccc(Nc6ncc(F)c(Oc7ccc(C(=O)Nc8ccccc8Cl)cc7)n6)cc5)CC4)CC3)cc2)C(=O)N1` (stereo not drawn) [Compound 101, N-(2-chlorophenyl)-4-((2-((4-((4-(2-(4-(4-(2,6-dioxopiperidin-3-yl)phenyl)piperazin-1-yl)ethyl)piperidin-1-yl)carbamoyl)phenyl)amino)-5-fluoropyrimidin-4-yl)oxy) benzamide], the IC50 with NCI-H446 cell line was more than 200 nM. Moreover, the entries for the “luminescence value (Level)” value on Aurora kinase A (AURKA) (10 nM compound) and at Aurora kinase A (AURKA) (100 nM compound) were “B (B is 0.3 to 0.5)” and “A (A is <0.2)”, respectively.
Turning to `O=C1CCC(c2ccc(N3CCN(CCC4CCN(NC(=O)c5ccc(Nc6ncc(F)c(Nc7ccc(C(=O)Nc8ccccc8)cc7)n6)cc5)CC4)CC3)cc2)C(=O)N1` (stereo not drawn) [Compound 103, 4-[[2-[4-[[4-[2-[4-[4-(2,6-dioxo-3-piperidyl)phenyl]piperazin-1-yl]ethyl]-1-piperidyl]carbamoyl]anilino]-5-fluoro-pyrimidin-4-yl]amino]-N-phenyl-benzamide], in the assay with NCI-H446 cell line, the IC50 lay in the range of 50 to 100 nM. The “luminescence value (Level)” value was “B (B is 0.3 to 0.5)” at Aurora kinase A (AURKA) (10 nM compound) and “A (A is <0.2)” at Aurora kinase A (AURKA) (100 nM compound).
With `O=C1CCC(c2ccc(N3CCN(CCC4CCN(NC(=O)c5ccc(Nc6ncc(F)c(Nc7ccc(NC(=O)c8ccccc8F)cc7)n6)cc5)CC4)CC3)cc2)C(=O)N1` (stereo not drawn) [Compound 104, N-[4-[[2-[4-[[4-[2-[4-[4-(2,6-dioxo-3-piperidyl)phenyl]piperazin-1-yl]ethyl]-1-piperidyl]carbamoyl]anilino]-5-fluoro-pyrimidin-4-yl]amino]phenyl]-2-fluoro-benzamide], the IC50 in the assay with NCI-H446 cell line was less than 50 nM. In addition, the entries for the “luminescence value (Level)” value at Aurora kinase A (AURKA) (10 nM compound) and at Aurora kinase A (AURKA) (100 nM compound) were “A (A is <0.3)” and “A (A is <0.2)”, respectively.
In the case of `Cn1c(=O)n(C2CCC(=O)NC2=O)c2ccc(N3CCN(CCC4CCN(NC(=O)c5ccc(Nc6ncc(F)c(Nc7ccc(C(=O)Nc8ccccc8Cl)cc7)n6)cc5)CC4)CC3)cc21` (stereo not drawn) [Compound 106, N-(2-chlorophenyl)-4-((2-((4-((4-(2-(4-(1-(2,6-dioxopiperidin-3-yl)-3-methyl-2-oxo-2,3-dihydro-1H-benzo[d]imidazol-5-yl)piperazin-1-yl)ethyl)piperidin-1-yl)carbamoyl)phenyl)amino)-5-fluoropyrimidin-4-yl)amino)benzamide], the IC50 in the assay on NCI-H446 cell line lay in the range of 100 to 150 nM. The results for the “luminescence value (Level)” value on Aurora kinase A (AURKA) (10 nM compound) and on Aurora kinase A (AURKA) (100 nM compound) were “A (A is <0.3)” and “A (A is <0.2)”, respectively.
Take `O=C1CC[C@@H](Nc2ccc(N3CCN(CCC4CCN(NC(=O)c5ccc(Nc6ncc(F)c(Nc7ccc(C(=O)Nc8ccccc8Cl)cc7)n6)cc5)CC4)CC3)c(F)c2)C(=O)N1` [Compound 108, (R)—N-(2-chlorophenyl)-4-((2-((4-((4-(2-(4-(4-((2,6-dioxopiperidin-3-yl)amino)-2-fluorophenyl)piperazin-1-yl)ethyl)piperidin-1-yl)carbamoyl)phenyl)amino)-5-fluoropyrimidin-4-yl)amino)benzamide]: the IC50 with NCI-H446 cell line is less than 50 nM. For the same compound, the “luminescence value (Level)” value is “A (A is <0.3)” at Aurora kinase A (AURKA) (10 nM compound) and “A (A is <0.2)” on Aurora kinase A (AURKA) (100 nM compound).
